Assay results: PubChem BioAssay AID1963864 (Molecular Pharmacology Branch, DTP, NCI, 2024)

Test system: KRAS PDC multicell spheroid viability
Experiment: Anticancer human tumor 521955-158-R6-J3-PDC patient-derived pancreatic carcinoma cell line growth inhibition [KRAS2]
Conditions: for IC50: curve of first compound; for viability, T/C: stronger effect = lower value
Summary of the method: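 KRAS-mutant tumor cells were grown as spheroids with HUVEC endothelial cells and human MSCs as stroma. Targeted agents were tested alone and with KRAS pathway inhibitors. Doses started at or near clinical Cmax, or 10 microM, descending half-log.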

[1] = second compound 0.0316 µM, first compound 0.0316 µM
[2] = second compound 0.0316 µM, first compound 0.1 µM
[3] = second compound 0.0316 µM, first compound 0.316 µM
[4] = second compound 0.0316 µM, first compound 1 µM
[5] = second compound 0.0316 µM, first compound 3.16 µM
[6] = second compound 0.0316 µM, first compound 10 µM
[7] = second compound 0.1 µM, first compound 0.0316 µM
[8] = second compound 0.1 µM, first compound 0.1 µM
[9] = second compound 0.1 µM, first compound 0.316 µM
[10] = second compound 0.1 µM, first compound 1 µM
[11] = second compound 0.1 µM, first compound 3.16 µM
[12] = second compound 0.1 µM, first compound 10 µM
[13] = second compound 0.316 µM, first compound 0.0316 µM
[14] = second compound 0.316 µM, first compound 0.1 µM
[15] = second compound 0.316 µM, first compound 0.316 µM
[16] = second compound 0.316 µM, first compound 1 µM
[17] = second compound 0.316 µM, first compound 3.16 µM
[18] = second compound 0.316 µM, first compound 10 µM
[19] = second compound 1 µM, first compound 0.0316 µM
[20] = second compound 1 µM, first compound 0.1 µM
[21] = second compound 1 µM, first compound 0.316 µM
[22] = second compound 1 µM, first compound 1 µM
[23] = second compound 1 µM, first compound 3.16 µM
[24] = second compound 1 µM, first compound 10 µM
[25] = second compound 3.16 µM, first compound 0.0316 µM
[26] = second compound 3.16 µM, first compound 0.1 µM
[27] = second compound 3.16 µM, first compound 0.316 µM
[28] = second compound 3.16 µM, first compound 1 µM
[29] = second compound 3.16 µM, first compound 3.16 µM
[30] = second compound 3.16 µM, first compound 10 µM
[31] = second compound 0.0316 µM, first compound 0.000316 µM
[32] = second compound 0.0316 µM, first compound 0.001 µM
[33] = second compound 0.0316 µM, first compound 0.00316 µM
[34] = second compound 0.0316 µM, first compound 0.01 µM
[35] = second compound 0.1 µM, first compound 0.000316 µM
[36] = second compound 0.1 µM, first compound 0.001 µM
[37] = second compound 0.1 µM, first compound 0.00316 µM
[38] = second compound 0.1 µM, first compound 0.01 µM
[39] = second compound 0.316 µM, first compound 0.000316 µM
[40] = second compound 0.316 µM, first compound 0.001 µM
[41] = second compound 0.316 µM, first compound 0.00316 µM
[42] = second compound 0.316 µM, first compound 0.01 µM
[43] = second compound 1 µM, first compound 0.000316 µM
[44] = second compound 1 µM, first compound 0.001 µM
[45] = second compound 1 µM, first compound 0.00316 µM
[46] = second compound 1 µM, first compound 0.01 µM
[47] = second compound 3.16 µM, first compound 0.000316 µM
[48] = second compound 3.16 µM, first compound 0.001 µM
[49] = second compound 3.16 µM, first compound 0.00316 µM
[50] = second compound 3.16 µM, first compound 0.01 µM
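Also: drug exposure lasted seven days.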
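For viability, T/C in this document: 100% = DMSO vehicle wells and lower means fewer viable cells.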

Row | SMILES | IC50 (second compound 0.0316 µM) [nM] | IC50 (second compound 0.1 µM) [nM] | IC50 (second compound 0.316 µM) [nM] | IC50 (second compound 1 µM) [nM] | IC50 (second compound 3.16 µM) [nM] | viability, T/C [1] [%] | viability, T/C [2] [%] | viability, T/C [3] [%] | viability, T/C [4] [%] | viability, T/C [5] [%] | viability, T/C [6] [%] | viability, T/C [7] [%] | viability, T/C [8] [%] | viability, T/C [9] [%] | viability, T/C [13] [%] | viability, T/C [14] [%] | viability, T/C [19] [%] | viability, T/C [20] [%] | viability, T/C [25] [%] | viability, T/C [26] [%] | further results
1 | CC(C)NCC(C(=O)N1CCN(c2ncnc3c2C(C)CC3O)CC1)c1ccc(Cl)cc1 (stereo not given) + C=CC(=O)N1CCN(c2nc(OCC3CCCN3C)nc3c2CCN(c2cccc4cccc(C)c24)C3)CC1CC#N | > 10000 | > 10000 | > 10000 | > 10000 | < 31.6 | 80.4 | 86.4 | 84.4 | 75.9 | 76.3 | 65 | 76.8 | 87.5 | 74.4 | 79.1 | 74.2 | 63.3 | 59 | 43.9 | 38 | viability, T/C [10]: 66.2%; viability, T/C [11]: 74.3%; viability, T/C [12]: 57.4%; viability, T/C [15]: 74.3%; viability, T/C [16]: 66.7%; viability, T/C [17]: 74.3%; viability, T/C [18]: 65.1%; viability, T/C [21]: 68.5%; viability, T/C [22]: 58.9%; viability, T/C [23]: 58.3%; viability, T/C [24]: 57.4%; viability, T/C [27]: 35.2%; viability, T/C [28]: 29.1%; viability, T/C [29]: 25.1%; viability, T/C [30]: 15.8%
2 | CC(C)n1nc(-c2ccc3oc(N)nc3c2)c2c(N)ncnc21 + C=CC(=O)N1CCN(c2nc(OCC3CCCN3C)nc3c2CCN(c2cccc4cccc(C)c24)C3)CC1CC#N | 69.1 | 67.9 | 72.8 | 87.1 | 3.47 | 63 | 44.8 |  |  |  |  | 59.8 | 44.2 |  | 60.3 | 45.9 | 61.2 | 47 | 39.6 | 21.8 | viability, T/C [31]: 98%; viability, T/C [32]: 86.7%; viability, T/C [33]: 85.4%; viability, T/C [34]: 62.3%; viability, T/C [35]: 90.8%; viability, T/C [36]: 86.4%; viability, T/C [37]: 78.2%; viability, T/C [38]: 77.6%; viability, T/C [39]: 94.2%; viability, T/C [40]: 90.7%; viability, T/C [41]: 80.6%; viability, T/C [42]: 74.4%; viability, T/C [43]: 81.8%; viability, T/C [44]: 68.6%; viability, T/C [45]: 73.3%; viability, T/C [46]: 54.2%; viability, T/C [47]: 60.7%; viability, T/C [48]: 41.7%; viability, T/C [49]: 54.5%; viability, T/C [50]: 8.94%
3 | CC1(C)CCC(CN2CCN(c3ccc(C(=O)NS(=O)(=O)c4ccc(NCC5CCOCC5)c([N+](=O)[O-])c4)c(Oc4cnc5[nH]ccc5c4)c3)CC2)=C(c2ccc(Cl)cc2)C1 + C=CC(=O)N1CCN(c2nc(OCC3CCCN3C)nc3c2CCN(c2cccc4cccc(C)c24)C3)CC1CC#N | 3860 | 4480 | 2680 | 1920 | < 31.6 | 104 | 97.5 | 95.6 | 92.7 | 57.3 | 14.4 | 93.5 | 97.3 | 90.6 | 92 | 95.8 | 82.4 | 78.2 | 45.2 | 48.4 | viability, T/C [10]: 91.9%; viability, T/C [11]: 64.2%; viability, T/C [12]: 17%; viability, T/C [15]: 101%; viability, T/C [16]: 97.2%; viability, T/C [17]: 42.1%; viability, T/C [18]: 15.4%; viability, T/C [21]: 80.1%; viability, T/C [22]: 76.9%; viability, T/C [23]: 29.4%; viability, T/C [24]: 6.62%; viability, T/C [27]: 24.2%; viability, T/C [28]: 8.37%; viability, T/C [29]: 0.18%; viability, T/C [30]: 0.23%
4 | Cn1ncnc1[C@H]1c2n[nH]c(=O)c3cc(F)cc(c23)N[C@@H]1c1ccc(F)cc1 + C=CC(=O)N1CCN(c2nc(OCC3CCCN3C)nc3c2CCN(c2cccc4cccc(C)c24)C3)CC1CC#N | > 100 | > 100 | > 100 | > 100 | < 0.316 | 97 | 90.8 |  |  |  |  | 98.9 | 89.4 |  | 92.2 | 91 | 78.6 | 85.4 | 52.6 | 53.6 | viability, T/C [31]: 100%; viability, T/C [32]: 100%; viability, T/C [33]: 98.1%; viability, T/C [34]: 105%; viability, T/C [35]: 94.2%; viability, T/C [36]: 94.5%; viability, T/C [37]: 104%; viability, T/C [38]: 91.9%; viability, T/C [39]: 94.1%; viability, T/C [40]: 89.9%; viability, T/C [41]: 95.1%; viability, T/C [42]: 88.4%; viability, T/C [43]: 83.8%; viability, T/C [44]: 78.6%; viability, T/C [45]: 88.3%; viability, T/C [46]: 91.7%; viability, T/C [47]: 50.4%; viability, T/C [48]: 43.3%; viability, T/C [49]: 53.2%; viability, T/C [50]: 54.5%
